Values of other authors, collected in paper PMC7395068, “The evolution of strategies to minimise the risk of human drug-induced liver injury (DILI) in drug discovery and development” (Archives of Toxicology, 2020).
Like-named read-outs stand apart in the source and are kept apart here.

Settings: cited from earlier work
[1] = binary in vivo DILI call given beside the severity category, ref Chen 2016
[2] = human DILI concern category (LTKB DILIrank), ref Chen 2016
[3] = LTKB DILIrank category, ref Chen 2016
[4] = binary human DILI assignment, ref Chen 2016
[5] = binary DILI call, ref Chen 2016

| Compound | DILI +VE (5-8), DILI -VE (-4) (in vivo) | DILI severity category (in vivo) | DILI severity category [3] | DILI +VE (5-8), DILI -VE (-4) [4] | further results |
| --- | --- | --- | --- | --- | --- |
| CN(C)c1cc(NC(=O)CNC(C)(C)C)c(O)c2c1C[C@H]1C[C@H]3[C@H](N(C)C)C(O)=C(C(N)=O)C(=O)[C@@]3(O)C(O)=C1C2=O [tigecycline] | – | – | – | – | DILI +VE (5-8), DILI -VE (-4) [1]: -VE; DILI severity category [2]: Ambiguous DILI-concern |
| Cc1cc(Br)c(O)c2ncccc12 [tilbroquinol] | – | – | – | – | DILI +VE (5-8), DILI -VE (-4) [1]: +VE; DILI severity category [2]: vMost-DILI-Concern |
| O=P(O)(O)C(Sc1ccc(Cl)cc1)P(=O)(O)O [tiludronate] | – | – | – | – | DILI +VE (5-8), DILI -VE (-4) [1]: -VE; DILI severity category [2]: vNo-DILI-Concern |
| CC(C)(C)NC[C@H](O)COc1nsnc1N1CCOCC1 [timolol] | – | – | – | – | DILI +VE (5-8), DILI -VE (-4) [1]: -VE; DILI severity category [2]: Ambiguous DILI-concern |
| CC(S)C(=O)NCC(=O)O (stereo not shown) [tiopronin] | – | – | – | – | DILI +VE (5-8), DILI -VE (-4) [1]: -VE; DILI severity category [2]: Ambiguous DILI-concern |
| CCCCS(=O)(=O)N[C@@H](Cc1ccc(OCCCCC2CCNCC2)cc1)C(=O)O [tirofiban] | – | – | – | – | DILI +VE (5-8), DILI -VE (-4) [1]: -VE; DILI severity category [2]: vNo-DILI-Concern |
| Clc1ccc2nsnc2c1NC1=NCCN1 [tizanidine] | +VE | vMost-DILI-Concern | – | – | – |
| COc1ccc2c(C(=S)N(C)CC(=O)O)cccc2c1C(F)(F)F [tolrestat] | – | – | – | – | DILI +VE (5-8), DILI -VE (-4) [1]: +VE; DILI severity category [2]: vMost-DILI-Concern |
| Cc1ccccc1C(=O)Nc1ccc(C(=O)N2CCCC(O)c3cc(Cl)ccc32)c(C)c1 (stereo not shown) [tolvaptan] | – | – | – | – | DILI +VE (5-8), DILI -VE (-4) [1]: +VE; DILI severity category [2]: vMost-DILI-Concern |
| CC[C@@]1(O)C(=O)OCc2c1cc1n(c2=O)Cc2cc3c(CN(C)C)c(O)ccc3nc2-1 [topotecan] | – | – | – | – | DILI +VE (5-8), DILI -VE (-4) [1]: -VE; DILI severity category [2]: vNo-DILI-Concern |
| CCOC(=O)[C@H](CCc1ccccc1)N[C@@H](C)C(=O)N1[C@H](C(=O)O)C[C@H]2CCCC[C@@H]21 [trandolapril] | – | – | – | – | DILI +VE (5-8), DILI -VE (-4) [1]: +VE; DILI severity category [2]: vLess-DILI-Concern |
| CC(=O)Oc1ccc(C2(c3ccc(OC(C)=O)cc3)C(=O)N(C(C)=O)c3ccccc32)cc1 [triacetyldiphenolisatin] | – | – | – | – | DILI +VE (5-8), DILI -VE (-4) [1]: +VE; DILI severity category [2]: vMost-DILI-Concern |
| Nc1nc(N)c2nc(-c3ccccc3)c(N)nc2n1 [triamterene] | – | – | – | – | DILI +VE (5-8), DILI -VE (-4) [1]: +VE; DILI severity category [2]: vLess-DILI-Concern |
| Cc1nnc2n1-c1ccc(Cl)cc1C(c1ccccc1Cl)=NC2 [triazolam] | -VE | Ambiguous DILI-concern | – | – | – |
| Cl.Cl.NCCNCCNCCN [trientine hydrochloride] | -VE | vNo-DILI-Concern | – | – | – |
| COc1cc(C(=O)NCc2ccc(OCCN(C)C)cc2)cc(OC)c1OC [trimethobenzamide] | – | – | – | – | DILI +VE (5-8), DILI -VE (-4) [1]: -VE; DILI severity category [2]: Ambiguous DILI-concern |
| COc1cc(NCc2ccc3nc(N)nc(N)c3c2C)cc(OC)c1OC [trimetrexate] | – | – | – | – | DILI +VE (5-8), DILI -VE (-4) [1]: -VE; DILI severity category [2]: Ambiguous DILI-concern |
| CC(CN(C)C)CN1c2ccccc2CCc2ccccc21 (stereo not shown) [trimipramine] | – | – | – | – | DILI +VE (5-8), DILI -VE (-4) [1]: -VE; DILI severity category [2]: Ambiguous DILI-concern |
| NC(CO)(CO)CO [tromethamine] | – | – | Ambiguous DILI-concern | -VE | – |

| Compound | DILI +VE (5-8), DILI -VE (-4) (in vivo) | DILI severity category (in vivo) | DILI severity category [3] | DILI +VE (5-8), DILI -VE (-4) [4] | further results |
| --- | --- | --- | --- | --- | --- |
| O=C(O[C@H]1C[C@H]2CC[C@@H](C1)[N+]21CCCC1)C(O)(c1ccccc1)c1ccccc1 [trospium] | – | – | vNo-DILI-Concern | -VE | – |
| NCCc1ccc(O)cc1 [tyramine] | – | – | vNo-DILI-Concern | -VE | – |
| CC(C)[C@H](N)C(=O)OCCOCn1cnc2c(=O)[nH]c(N)nc21 [valaciclovir] | – | – | vLess-DILI-Concern | +VE | – |
| Cc1onc(-c2ccccc2)c1-c1ccc(S(N)(=O)=O)cc1 [valdecoxib] | – | – | vLess-DILI-Concern | +VE | – |
| CC(C)[C@H](N)C(=O)OCC(CO)OCn1cnc2c(=O)nc(N)[nH]c21 (stereo partly shown) [valganciclovir] | – | – | Ambiguous DILI-concern | -VE | – |
| c1cnc2cc3c(cc2n1)[C@@H]1CNC[C@H]3C1 [varenicline] | – | – | vLess-DILI-Concern | +VE | – |
| CC(=O)O[C@H]1C[C@@H]2CC[C@@H]3[C@H](CC[C@@]4(C)[C@H]3C[C@H]([N+]3(C)CCCCC3)[C@@H]4OC(C)=O)[C@@]2(C)C[C@@H]1N1CCCCC1 [vecuronium] | – | – | vNo-DILI-Concern | -VE | – |
| C=CC(N)CCC(=O)O (stereo not shown) [vigabatrin] | – | – | Ambiguous DILI-concern | -VE | – |
| CC[C@]1(O)C[C@H]2CN(CCc3c([nH]c4ccccc34)[C@@](C(=O)OC)(c3cc4c(cc3OC)N(C=O)[C@H]3[C@@](O)(C(=O)OC)[C@H](OC(C)=O)[C@]5(CC)C=CCN6CC[C@]43[C@@H]65)C2)C1 [vincristine] | – | – | vLess-DILI-Concern | +VE | – |
| CCC1=C[C@@H]2CN(C1)Cc1c([nH]c3ccccc13)[C@@](C(=O)OC)(c1cc3c(cc1OC)N(C)[C@H]1[C@@](O)(C(=O)OC)[C@H](OC(C)=O)[C@]4(CC)C=CCN5CC[C@]31[C@@H]54)C2 [vinorelbine] | – | – | Ambiguous DILI-concern | -VE | – |
| CC1=C(/C=C/C(C)=C/C=C/C(C)=C/CO)C(C)(C)CCC1 [vitamin a] | – | – | vLess-DILI-Concern | +VE | – |
| O=C1O[C@H]([C@@H](O)CO)C(O)=C1O [vitamin c] | – | – | vNo-DILI-Concern | -VE | – |
| O=C(CCCCCCC(=O)Nc1ccccc1)NO [vorinostat] | – | – | vNo-DILI-Concern | -VE | – |
| CCOC(Nc1ccc(C(=O)O)cc1)C(=O)c1ccc(-c2ccccc2)cc1 (stereo not shown) [xenazoic acid] | – | – | vMost-DILI-Concern | +VE | – |
| O=C1Cc2cc(CCN3CCN(c4nsc5ccccc45)CC3)c(Cl)cc2N1 [ziprasidone] | – | – | vLess-DILI-Concern | +VE | – |
| O=P(O)(O)C(O)(Cn1ccnc1)P(=O)(O)O [zoledronate] | – | – | vLess-DILI-Concern | +VE | – |
| CN(C)CCc1c[nH]c2ccc(C[C@H]3COC(=O)N3)cc12 [zolmitriptan] | – | – | Ambiguous DILI-concern | -VE | – |
| Argipressin | – | – | vNo-DILI-Concern | – | DILI +VE (5-8), DILI -VE (-4) [5]: -VE |
| Sodium polystyrene sulfonate | -VE | vNo-DILI-Concern | – | – | – |

| Compound | DILI +VE (5-8), DILI -VE (-4) (in vivo) | DILI severity category (in vivo) | DILI severity category [3] | DILI +VE (5-8), DILI -VE (-4) [4] | further results |
| --- | --- | --- | --- | --- | --- |
| abatacept | +VE | vLess-DILI-Concern | – | – | – |
| abciximab | -VE | vNo-DILI-Concern | – | – | – |
| adalimumab | +VE | vLess-DILI-Concern | – | – | – |
| agalsidase beta | -VE | vNo-DILI-Concern | – | – | – |
| aldesleukin | -VE | Ambiguous DILI-concern | – | – | – |
| alemtuzumab | -VE | vNo-DILI-Concern | – | – | – |
| alglucosidase alfa | -VE | vNo-DILI-Concern | – | – | – |
| alteplase | -VE | vNo-DILI-Concern | – | – | – |
| anakinra | +VE | vLess-DILI-Concern | – | – | – |
| aprotinin | – | – | Ambiguous DILI-concern | – | DILI +VE (5-8), DILI -VE (-4) [5]: -VE |
| asparaginase | +VE | vMost-DILI-Concern | – | – | – |
| basiliximab | -VE | vNo-DILI-Concern | – | – | – |
| bevacizumab | -VE | vNo-DILI-Concern | – | – | – |
| bivalirudin | – | – | vNo-DILI-Concern | – | DILI +VE (5-8), DILI -VE (-4) [5]: -VE |
| bleomycin | – | – | Ambiguous DILI-concern | – | DILI +VE (5-8), DILI -VE (-4) [5]: -VE |
| botulinum toxin type a | -VE | vNo-DILI-Concern | – | – | – |
| canakinumab | +VE | vLess-DILI-Concern | – | – | – |
| certolizumab pegol | -VE | Ambiguous DILI-concern | – | – | – |
